Consider 13 compounds from patent US5198452A, “Styryl phridyl compounds and their pharmaceutical compositions” (Yoshitomi Pharmaceutical Industries, Ltd., priority 1991, dated 1993).

The subject of data set [1] is leukotriene D4-induced contraction of guinea pig terminal ileum. Briefly: Inhibition of contractions of guinea pig terminal ileum induced with leukotriene D4. As to conditions: 1 nM LTD4; 2 min incubation; indomethacin 3 μM, atropin 0.3 μM; 37° C. Also noted: species or system guinea pig (male Hartly). As to the method:
The inhibition of contractions of guinea pig terminal ileum induced with leukotriene D4.
Segments of male Hartly guinea pig terminal ileus were mounted under 750 mg tension in a 10 ml organ bath containing a Tyrode solution. To eliminate instrinsic prostaglandin and cholinergic responses, indomethacin (3 μM) and atropin (0.3 μM) were incorporated into bathing solution under continuous aeration at 37° C. […] measurements were made with an isotonic transducer and recorded on a multipen-recorder. After an equilibration period of 30-60 minutes, isotonic responses were 1 nm LTD4 were recorded until reproducible responses obtained. The submaximal contraction induced by 1 nM LTD4 served as control. Test compounds were dissolved in ethanol (0.1% final concentration) and incubated at various concentrations for 2 minutes before contractions were induced with 1 nM LTD4. The inhibition of contraction was calculated relative to the preceding control contraction. The inhibitory concentration (IC50, g/ml) were calculated graphically.

Data set [2] concerns bronchoconstriction in guinea pigs induced with leukotriene D4. As to the kind of experiment: Bronchoconstriction in guinea pigs induced with leukotriene D4. The data set is classed as in vivo, guinea pig (female Hartley). As to conditions: Cavia porcellus. As to the method:
Actions of bronchoconstriction in guinea pigs induced with leukotriene D4.
Resistance to lung inflation was measured by the overflow method of Konzett and Rossler (Naunyn Schmiedebergs Arch. Exp. pathol. Pharmakol., 195, 71-74, 1940), modified by the use of an air pressure transducer. Female Hartley guinea pigs (350-450 g) were anesthetized with urethane (1.5 g/kg, i.p.). An endotracheal tube was inserted in the trachea and connected to an air pump (Matsushita Denko Co., Ltd.) with an exhaust relay of 50 strokes/minutes (PK-0305-NC, Takasago Electric, Inc.). The animals were artificially ventilated at a constant volume (3-4 ml). Tracheal pressure was recorded with a side-arm of the cannula connected to a pressure transducer (MFP-1, Nihon Kohden Kogyo Co., Ltd.). Test compounds or vehicles were administered i.v. (0.03 ml/100 g) 5 minutes or p.o. (0.5 ml/100 g) 1 hour prior to the intraveneous injection of LT04 (1 μg/kg). All compounds were injected through the cannulated jugular vein. The peak bronchoconstriction of each animal was determined as the percentage of the maximal pressure obtained by clamping off the trachea at the end of each experiment.
The inhibitory effect of the test compounds were expressed as follows: % of inhibition=(1-T/C)×100 wherein T and C are the average peak bronchoconstrictions for the compounds of the present invention and the vehicle, respectively.
The 50% effective doses (ED50, mg/kg) were calculated graphically.

Data set [3] is described as follows: Acute toxicity. As to conditions: mouse, in vivo, single administration, after 10 days, Litchfield-Wilcoxon. As to the method: EXPERIMENT EXAMPLE 3: ACUTE TOXICITY
The compound of Example 1 of the present invention was intraveneously (iv) or orally (po) administered to a group of male ddy mice once. After 10 days, the LD50 values were determined by the Litchfield-Wilcoxon method.

The mark [4] stands for this setting: 5 min, iv, 5 minutes prior to LTD4 (1 μg/kg i.v.), read-out: Action of Bronchoconstriction in guinea pigs induced with LTD4 [ED50 (mg/kg)] iv.
Setting [5] is: po, 1 hour prior to LTD4 (1 μg/kg i.v.), read-out: Action of Bronchoconstriction in guinea pigs induced with LTD4 [ED50 (mg/kg)] po.

Structures are written as SMILES. Where two headings read alike, the source gives them in different places.

Regarding `CCC(CC)(CC(=O)Nc1cccc(/C=C/c2cccc(COCCCCc3ccccc3)n2)c1)C(=O)O` [Compound A, 2-[(E)-2-(3-(3-carboxy-3-ethylvalerylamino)phenyl)ethenyl]-6-(4-phenylbutoxy)methylpyridine 1/2 hydrate], the “The inhibition of contractions of guinea pig terminal ileum induces with LTD4 [IC50 (g/ml)]” value (from here on “The inhibition”) in data set [1] worked out at 2.2e-09 g/mL. Besides, the ED50 in data set [2] (setting [4]) is 0.037 mg/kg; in data set [2] (setting [5]), 1.3 mg/kg.
Regarding `CCCCc1ccc(CCCCOCc2cccc(/C=C/c3cccc(NC(=O)CC(CC)(CC)C(=O)O)c3)n2)cc1` [Compound B, 2-[(E)-2-(3-(3-carboxy-3-ethylvalerylamino)phenyl)ethenyl]-6-[4-(4-butylphenyl)butoxy]methylpyridine], the “The inhibition” value in data set [1] worked out at 1.1e-10 g/mL. Further, the results for the ED50 in data set [2] (setting [4]) and in data set [2] (setting [5]) were 0.0054 mg/kg and 0.8 mg/kg, respectively.
On to `CCC(CC)(CC(=O)Nc1cccc(/C=C/c2cccc(COCCCCc3ccc(F)cc3)n2)c1)C(=O)O` [Compound C, 2-[(E)-2-(3-(3-carboxy-3-ethylvalerylamino)phenyl)ethenyl]-6-[4-(4-fluorophenyl)butoxy]methylpyridine 1/2 hydrate], for which the “The inhibition” value in data set [1] stood at 2.5e-09 g/mL. Besides, the ED50 amounted to 0.03 mg/kg in data set [2] (setting [4]) and 0.7 mg/kg in data set [2] (setting [5]).
On to `CCc1ccc(CCCCOCc2cccc(/C=C/c3cccc(NC(=O)CC(CC)(CC)C(=O)O)c3)n2)cc1` [Compound D, 2-[(E)-2-(3-(3-carboxy-3-ethylvalerylamino)phenyl)ethenyl]-6-[4-(4-ethylphenyl)butoxy]methylpyridine], for which the “The inhibition” value in data set [1] was 6.6e-11 g/mL. Further, the ED50 in data set [2] (setting [4]) was 0.0023 mg/kg; in data set [2] (setting [5]) it was 1 mg/kg.
Turning to `CCCc1ccc(CCCCOCc2cccc(/C=C/c3cccc(NC(=O)CC(CC)(CC)C(=O)O)c3)n2)cc1` [Compound E, 2-[(E)-2-(3-(3-carboxy-3-ethylvalerylamino)phenyl)ethenyl]-6-[4-(4-propylphenyl)butoxy]methylpyridine 1/4 hydrate], in data set [1], the “The inhibition” value worked out at 6e-10 g/mL. The ED50 is 0.006 mg/kg in data set [2] (setting [4]) and 1.9 mg/kg in data set [2] (setting [5]).
In the case of `CCC(CC)(CC(=O)Nc1cccc(/C=C/c2cccc(COCCCCc3ccc(C(C)C)cc3)n2)c1)C(=O)O` [Compound F, 2-[(E)-2-(3-(3-carboxy-3-ethylvalerylamino)phenyl)ethenyl]-6-[4-(4-isopropylphenyl)butoxy]methylpyridine], in data set [1], the “The inhibition” value was 4e-10 g/mL. Also, the figures for the ED50 in data set [2] (setting [4]) and in data set [2] (setting [5]) were 0.014 mg/kg and 2.2 mg/kg, respectively.
For the compound `CCC(CC)(CC(=O)Nc1cccc(/C=C/c2cccc(COCCCCc3ccc(CC(C)C)cc3)n2)c1)C(=O)O` [Compound G, 2-[(E)-2-(3-(3-carboxy-3-ethylvalerylamino)phenyl)ethenyl]-6-[4-(4-isobutylphenyl)butoxy]methylpyridine], the “The inhibition” value in data set [1] is 3.6e-10 g/mL. The ED50 in data set [2] (setting [4]) came to 0.0012 mg/kg; in data set [2] (setting [5]), 1.6 mg/kg.
For `CCOc1ccc(CCCCOCc2cccc(/C=C/c3cccc(NC(=O)CC(CC)(CC)C(=O)O)c3)n2)cc1` [Compound H, 2-[(E)-2-(3-(3-carboxy-3-ethylvalerylamino)phenyl)ethenyl]-6-[4-(4-ethoxyphenyl)butoxy]methylpyridine], in that order: 1.8e-10 g/mL, 0.01 mg/kg and 2 mg/kg.
On to `CCCOc1ccc(CCCCOCc2cccc(/C=C/c3cccc(NC(=O)CC(CC)(CC)C(=O)O)c3)n2)cc1` [Compound I, 2-[(E)-2-(3-(3-carboxy-3-ethylvalerylamino)phenyl)ethenyl]-6-[4-(4-propoxyphenyl)butoxy]methylpyridine], for which the “The inhibition” value in data set [1] was determined as 7.6e-11 g/mL. Further, the ED50 was 0.0023 mg/kg in data set [2] (setting [4]) and 2.5 mg/kg in data set [2] (setting [5]).
In the case of `CCCCOc1ccc(CCCCOCc2cccc(/C=C/c3cccc(NC(=O)CC(CC)(CC)C(=O)O)c3)n2)cc1` [Compound J, 2-[(E)-2-(3-(3-carboxy-3-ethylvalerylamino)phenyl)ethenyl]-6-[4-(4-butoxyphenyl)butoxy]methylpyridine 3/2 hydrate], the “The inhibition” value in data set [1] was 9e-11 g/mL. The ED50 in data set [2] (setting [4]) turned out to be 0.0046 mg/kg; in data set [2] (setting [5]) it was 0.46 mg/kg.
For `CCC(CC)(CC(=O)Nc1cccc(/C=C/c2cccc(COCCCCc3ccc(OCCC(C)C)cc3)n2)c1)C(=O)O` [Compound K, 2-[(E)-2-(3-(3-carboxy-3-ethylvalerylamino)phenyl)ethenyl]-6-[4-(4-isopentyloxyphenyl)butoxy]methylpyridine 1/2 hydrate], in that order: 3.1e-10 g/mL, 0.0036 mg/kg and 0.25 mg/kg.
For `CCCc1c(OCCCCc2nnn[nH]2)ccc(C(C)=O)c1O` [Compound L, 1-[2-hydroxy-3-propyl-4-(4-(1H-tetrazol-5-yl)butoxy)phenyl]ethanone, reference compound], in that order: 2.5e-08 g/mL, 0.28 mg/kg and 22 mg/kg.
On to `CCC(CC)(CC(=O)Nc1cccc(/C=C/c2cccc(COCCCCc3ccc(C)cc3)n2)c1)C(=O)O` [Example 1, 2-[(E)-2-(3-(3-carboxy-3-ethylvalerylamino)phenyl)ethenyl]-6-[4-(4-methylphenyl)butoxy]methylpyridine], for which the LD50 at 240 h in data set [3] (iv, read-out: LD50 (mg/kg), iv) is over 300 mg/kg; in data set [3] (po, read-out: LD50 (mg/kg), po), over 1000 mg/kg.
